This passage reports GI50 and TGI results from PubChem BioAssay (NCI).

Test in all cases: growth of human tumour cells (NCI), 48 h
Test [1] relates to MCF7 breast.
For test [2], the system named is EKVX NSCLC.
Test [3] has as its system KM12 colon.
For test [4], the system named is TK-10 renal.
Test [5] relates to MDA-N.
Test [6] concerns OVCAR-4 ovarian.
For test [7], the system named is HOP-62 NSCLC.
The subject of test [8] is SW-620 colon.
The subject of test [9] is NCI-H23 lung.
The test system of test [10] is A549 NSCLC.

The structures appear in SMILES notation. “And” between values parts separate entries of the source, which are not always exact repeats. Equal values may be shown once.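 Cells were grown in 96-well plates and exposed to each compound for 48 hours at five concentrations; endpoints were interpolated linearly between bracketing concentrations, or set to the highest concentration if not reached. Here, GI50 denotes the concentration required for 50% inhibition of growth. The concentration for full growth arrest is given as TGI.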 A value given as a limit tells only on which side of the number the result lay.

Take `CCCNC1=C2CC(C)CC(OC)[C@@H](O)[C@H](C)/C=C(\C)C(OC(N)=O)C(OC)/C=C\C=C(/C)C(=O)NC(=CC1=O)C2=O` (stereo partly drawn): the GI50 in test [1] was 52.5 nM; in test [2] it was 16 µM; in test [3], 23.9 nM; in [4] it was 11.6 µM; in test [5], 75.7 nM; in [8] it was 60.6 nM. Also, the GI50 is 63.9 nM in test [9] and 514 nM in [10]. The TGI in test [1] was 28.5 µM; in [2], 84.4 µM; in test [3] it was 0.673 µM and 0.727 µM; in test [4], over 100 µM; in [5], 17.1 µM; in test [6] it was over 100 µM. For the same compound, the TGI in test [7] was 44.4 µM; in test [8], over 100 µM; in test [9], 23 µM; in test [10] it was 27.9 µM.

Turning to `CC[C@@]1(O)C(=O)OCc2c1cc1n(c2=O)Cc2c-1nc1ccccc1c2/C=N\NC(=O)CN`, the TGI in [1] was over 64 µM; in [2] it was over 100 µM; in test [3] it was over 100 µM; in test [4], over 100 µM; in test [5], over 100 µM; in [6], over 100 µM. For the same compound, the TGI in test [7] is 3.73 µM; in test [8], over 100 µM; in [9], 1.04 µM; in [10], over 100 µM.

In the case of `NC(=O)C(c1ccccc1)N1OC2C(=O)N(c3ccccc3)C(=O)C2C1c1c2ccccc2c(Cl)c2ccccc12` (stereo not drawn), the TGI in test [1], in [2], in [3], in test [5], in [6] and in test [7] was over 100 µM throughout. The TGI in test [8], in test [9] and in test [10] was over 100 µM each time.

Consider `O=C(O)CN(CC(=O)O)C1CCCCC1N(CC(=O)O)CC(=O)NCCN=C=S` (stereo not drawn), for which the TGI in [1], in test [2], in test [3], in test [4], in test [5] and in test [7] was over 100 µM in each case. In addition, the TGI in test [8], in test [9] and in [10] was over 100 µM throughout.

In the case of `COc1cc(/C=C/C(=N\NS(=O)(=O)c2ccc(C)cc2)c2sc(NNC(C)=O)nc2C)ccc1O`, the TGI in test [1], in [2], in test [3], in test [4], in test [5] and in test [6] was over 100 µM in each case. Also, the TGI in [7], in [8], in [9] and in test [10] was over 100 µM each time.

`C=C1c2nc3ccccc3n2C=C(c2ccccc2)N1c1ccc([N+](=O)[O-])cc1`: the TGI in test [1] is over 37.9 µM; in [2], 24.8 µM; in [3], 13.8 µM; in test [4], 22.1 µM; in test [5], 43.5 µM; in [6], 2.29 µM. Further, the TGI is over 52.6 µM in [7], 59 µM in test [8], 38.5 µM in test [9] and 13.5 µM in test [10].

On to `O=C1OCC(O)=C1C(c1ccc(Cl)cc1)c1cc2c(cc1O)OCO2` (stereo not drawn), for which the TGI in test [1], in [2], in test [3], in test [4], in [5] and in test [6] was over 100 µM in each case. Besides, the TGI in test [7], in [8] and in test [10] was over 100 µM each time.

As to `C=C(Br)C(C)(Cl)CCC(Br)C(C)(C)Cl` (stereo not drawn), the TGI in [1], in [2], in [3], in test [4], in [5] and in test [6] was over 100 µM each time. Besides, the TGI in [7] is over 100 µM; in test [8], 94.7 µM; in [9], over 100 µM; in test [10], over 100 µM.

`CCNC(=S)N/N=C/c1cc([N+](=O)[O-])ccc1O`: the TGI in test [1] is 4.4 µM; in [2], over 100 µM; in [3], over 100 µM; in test [4] it was 79.8 µM; in test [5] it was over 100 µM; in test [6], 72.8 µM. In addition, the TGI in test [7], in test [8], in [9] and in test [10] was over 100 µM in each case.

For `Clc1cc(OC2C3CC4CC(C3)CC2C4)nc(Cl)n1` (stereo not drawn), the TGI was 35.2 µM in [1]; 29.6 µM in test [2]; 39.1 µM in test [3]; over 100 µM in test [4]; 53.9 µM in test [5]; 34.3 µM in test [6]. Besides, the TGI in test [7] turned out to be 67.1 µM; in test [8], 29 µM; in test [9], 31 µM; in test [10], 95.9 µM.

On to `O=C1/C(=C/c2ccc(O)cc2)CC/C1=C\c1ccc(O)cc1`, for which the TGI in test [1], in test [2], in test [3], in [4], in [5] and in test [6] was over 100 µM each time. Further, the TGI in [7], in test [8], in test [9] and in [10] was over 100 µM throughout.

On to `O=C1C(=Cc2ccc(O)cc2)N=C(c2ccccc2)N1n1c(-c2ccccc2)nc2ccccc2c1=O`, for which the TGI in test [1], in test [2], in [3], in test [4], in [5] and in test [7] was over 100 µM each time. For the same compound, the TGI in [8], in [9] and in test [10] was over 100 µM in each case.

On to `O=C(O)c1cccc2c1/C(=N/Nc1ccccc1)CC2`, for which the TGI in test [1], in test [2], in test [3], in [4], in test [5] and in test [6] was over 100 µM each time. Also, the TGI in test [7], in test [8] and in [9] was over 100 µM in each case.
